Experimental data as given in PubChem BioAssay AID1259407 (Chemical Carcinogenesis Research Information System (CCRIS), 2018).
The source made the active and inactive calls. No rule for the calls is given here.

Tested on: CCRIS mutagenicity, Ames/micronucleus/aberration tests
Experiment: CCRIS mutagenicity studies
[1] = Test System: AMES SALMONELLA TYPHIMURIUM, Strain/Indicator: TA98, Metabolic Activation: NONE, Method: PREINCUBATION
[2] = Test System: AMES SALMONELLA TYPHIMURIUM, Strain/Indicator: TA100, Metabolic Activation: NONE, Method: PREINCUBATION
[3] = Test System: AMES SALMONELLA TYPHIMURIUM, Strain/Indicator: TA1535, Metabolic Activation: NONE, Method: PREINCUBATION

Compound: O=C1C(c2[nH]c3ccc(S(=O)(=O)O)cc3c2O)=Nc2ccc(S(=O)(=O)O)cc21
- mutagenic call [1]: inactive; negative
- mutagenic call (Test System: AMES SALMONELLA TYPHIMURIUM, Strain/Indicator: TA98, Metabolic Activation: S-9, Method: PREINCUBATION): inactive; negative
- mutagenic call [2]: inactive; negative
- mutagenic call (Test System: AMES SALMONELLA TYPHIMURIUM, Strain/Indicator: TA100, Metabolic Activation: S-9, Method: PREINCUBATION): inactive; negative
- mutagenic call (Test System: Mouse lymphoma, Strain/Indicator: L5178Y (tk+/tk-), Metabolic Activation: None, Method: Suspension/plate): inactive; negative
- mutagenic call (Test System: Mouse lymphoma, Strain/Indicator: L5178Y (tk+/tk-), Metabolic Activation: Rat, liver, S-9, Aroclor 1254, Method: Suspension/plate): active; positive

Compound: C/C=C/C1=CC(=O)[C@]23C[C@H]2C(C)(C)O[C@]3(O)C1=O
- mutagenic call (Test System: AMES SALMONELLA TYPHIMURIUM, Strain/Indicator: TA97, Metabolic Activation: NONE): active; positive
- mutagenic call (Test System: AMES SALMONELLA TYPHIMURIUM, Strain/Indicator: TA98, Metabolic Activation: NONE): inactive; negative
- mutagenic call (Test System: AMES SALMONELLA TYPHIMURIUM, Strain/Indicator: TA100, Metabolic Activation: NONE): active; positive
- mutagenic call (Test System: AMES SALMONELLA TYPHIMURIUM, Strain/Indicator: TA102, Metabolic Activation: NONE): active; positive

Compound: CC1(c2ccc(Br)cc2)CO1 (centres undefined)
- mutagenic call [2]: inactive; negative

Compound: CC(=O)Nc1ccc(N=Nc2ccc(N(C)C)cc2)cc1
- mutagenic call (Test System: AMES SALMONELLA TYPHIMURIUM, Strain/Indicator: TA98, Metabolic Activation: RAT, LIVER, S-9, POLYCHLORINATED BIPHENYLS, Method: PREINCUBATION): active; positive
- mutagenic call (Test System: AMES SALMONELLA TYPHIMURIUM, Strain/Indicator: TA100, Metabolic Activation: RAT, LIVER, S-9, POLYCHLORINATED BIPHENYLS, Method: PREINCUBATION): inactive; negative

Compound: CC(O)CN(CC(C)O)CC(C)O (centres undefined) (tested in a mixture with another compound)
- mutagenic call [1]: inactive; negative
- mutagenic call (Test System: AMES SALMONELLA TYPHIMURIUM, Strain/Indicator: TA98, Metabolic Activation: RAT LIVER S-9, AROCLOR 1254, 10%, Method: PREINCUBATION): inactive; negative
- mutagenic call [2]: inactive; negative
- mutagenic call (Test System: AMES SALMONELLA TYPHIMURIUM, Strain/Indicator: TA100, Metabolic Activation: RAT LIVER S-9, AROCLOR 1254, 10%, Method: PREINCUBATION): inactive; negative
- mutagenic call [3]: inactive; negative
- mutagenic call (Test System: AMES SALMONELLA TYPHIMURIUM, Strain/Indicator: TA1535, Metabolic Activation: RAT LIVER S-9, AROCLOR 1254, 10%, Method: PREINCUBATION): inactive; negative
- mutagenic call (Test System: AMES SALMONELLA TYPHIMURIUM, Strain/Indicator: TA1537, Metabolic Activation: NONE, Method: PREINCUBATION): inactive; negative
- mutagenic call (Test System: AMES SALMONELLA TYPHIMURIUM, Strain/Indicator: TA1537, Metabolic Activation: RAT LIVER S-9, AROCLOR 1254, 10%, Method: PREINCUBATION): inactive; negative
- mutagenic call (Test System: UDS RAT HEPATOCYTES, Strain/Indicator: THYMIDINE INCORPORATION, Metabolic Activation: NONE, Method: AUTORADIOGRAPHY): inactive; negative

Compound: CN1C[C@@H](O)c2cc3c(c4c2[C@H]1Cc1ccccc1-4)OCO3
- mutagenic call (Test System: AMES SALMONELLA TYPHIMURIUM, Strain/Indicator: TA98, Metabolic Activation: RAT, LIVER, S-9, PHENOBARBITAL AND BETA-NAPHTHOFLAVONE, Method: PREINCUBATION): active; positive
- mutagenic call (Test System: AMES SALMONELLA TYPHIMURIUM, Strain/Indicator: TA100, Metabolic Activation: RAT, LIVER, S-9, PHENOBARBITAL AND BETA-NAPHTHOFLAVONE, Method: PREINCUBATION): active; positive

Compound: [Ga]#[As]
- mutagenic call (Test System: AMES SALMONELLA TYPHIMURIUM, Strain/Indicator: TA97, Metabolic Activation: HAMSTER, LIVER, S-9, AROCLOR 1254 (10 OR 30%), Method: PREINCUBATION): inactive; negative
- mutagenic call (Test System: AMES SALMONELLA TYPHIMURIUM, Strain/Indicator: TA97, Metabolic Activation: NONE, Method: PREINCUBATION): inactive; negative
- mutagenic call (Test System: AMES SALMONELLA TYPHIMURIUM, Strain/Indicator: TA97, Metabolic Activation: RAT, LIVER, S-9, AROCLOR 1254 (10 OR 30%), Method: PREINCUBATION): inactive; negative
- mutagenic call (Test System: AMES SALMONELLA TYPHIMURIUM, Strain/Indicator: TA98, Metabolic Activation: HAMSTER, LIVER, S-9, AROCLOR 1254 (10%), Method: PREINCUBATION): inactive; negative
- mutagenic call (Test System: AMES SALMONELLA TYPHIMURIUM, Strain/Indicator: TA98, Metabolic Activation: HAMSTER, LIVER, S-9, AROCLOR 1254 (30%), Method: PREINCUBATION): inactive; negative
- mutagenic call [1]: inactive; negative
- mutagenic call (Test System: AMES SALMONELLA TYPHIMURIUM, Strain/Indicator: TA98, Metabolic Activation: RAT, LIVER, S-9, AROCLOR 1254 (10%), Method: PREINCUBATION): inactive; negative
- mutagenic call (Test System: AMES SALMONELLA TYPHIMURIUM, Strain/Indicator: TA98, Metabolic Activation: RAT, LIVER, S-9, AROCLOR 1254 (30%), Method: PREINCUBATION): inactive; negative
- mutagenic call (Test System: AMES SALMONELLA TYPHIMURIUM, Strain/Indicator: TA100, Metabolic Activation: HAMSTER, LIVER, S-9, AROCLOR 1254 (10%), Method: PREINCUBATION): inactive; negative
- mutagenic call (Test System: AMES SALMONELLA TYPHIMURIUM, Strain/Indicator: TA100, Metabolic Activation: HAMSTER, LIVER, S-9, AROCLOR 1254 (30%), Method: PREINCUBATION): inactive; negative
- mutagenic call [2]: inactive; negative
- mutagenic call (Test System: AMES SALMONELLA TYPHIMURIUM, Strain/Indicator: TA100, Metabolic Activation: RAT, LIVER, S-9, AROCLOR 1254 (10%), Method: PREINCUBATION): inactive; negative
- mutagenic call (Test System: AMES SALMONELLA TYPHIMURIUM, Strain/Indicator: TA100, Metabolic Activation: RAT, LIVER, S-9, AROCLOR 1254 (30%), Method: PREINCUBATION): inactive; negative
- mutagenic call (Test System: AMES SALMONELLA TYPHIMURIUM, Strain/Indicator: TA102, Metabolic Activation: HAMSTER, LIVER, S-9, AROCLOR 1254 (5 OR 10%), Method: PREINCUBATION): inactive; negative
- mutagenic call (Test System: AMES SALMONELLA TYPHIMURIUM, Strain/Indicator: TA102, Metabolic Activation: HAMSTER, LIVER, S-9, AROCLOR 1254 (30%), Method: PREINCUBATION): inactive; negative
- mutagenic call (Test System: AMES SALMONELLA TYPHIMURIUM, Strain/Indicator: TA102, Metabolic Activation: NONE, Method: PREINCUBATION): inactive; negative
- mutagenic call (Test System: AMES SALMONELLA TYPHIMURIUM, Strain/Indicator: TA102, Metabolic Activation: RAT, LIVER, S-9, AROCLOR 1254 (10%), Method: PREINCUBATION): inactive; negative
- mutagenic call (Test System: AMES SALMONELLA TYPHIMURIUM, Strain/Indicator: TA102, Metabolic Activation: RAT, LIVER, S-9, AROCLOR 1254 (30%), Method: PREINCUBATION): inactive; negative
- mutagenic call (Test System: AMES SALMONELLA TYPHIMURIUM, Strain/Indicator: TA1535, Metabolic Activation: HAMSTER, LIVER, S-9, AROCLOR 1254 (10%), Method: PREINCUBATION): inactive; negative
- mutagenic call (Test System: AMES SALMONELLA TYPHIMURIUM, Strain/Indicator: TA1535, Metabolic Activation: HAMSTER, LIVER, S-9, AROCLOR 1254 (30%), Method: PREINCUBATION): inactive; negative
- mutagenic call [3]: inactive; negative
- mutagenic call (Test System: AMES SALMONELLA TYPHIMURIUM, Strain/Indicator: TA1535, Metabolic Activation: RAT, LIVER, S-9, AROCLOR 1254 (10%), Method: PREINCUBATION): inactive; negative
- mutagenic call (Test System: AMES SALMONELLA TYPHIMURIUM, Strain/Indicator: TA1535, Metabolic Activation: RAT, LIVER, S-9, AROCLOR 1254 (30%), Method: PREINCUBATION): inactive; negative

Compound: OC1c2cccc3ccc4c5ccccc5cc1c4c23 (centres undefined)
- mutagenic call (Test System: AMES SALMONELLA TYPHIMURIUM, Strain/Indicator: TA98, Metabolic Activation: HUMAN, LIVER, CYTOSOL, PAPS, Method: PREINCUBATION): active; positive
- mutagenic call [1]: active; positive
- mutagenic call (Test System: AMES SALMONELLA TYPHIMURIUM, Strain/Indicator: TA98, Metabolic Activation: RAT, LIVER, CYTOSOL, KCL, Method: PREINCUBATION): inactive; negative
- mutagenic call (Test System: AMES SALMONELLA TYPHIMURIUM, Strain/Indicator: TA98, Metabolic Activation: RAT, LIVER, CYTOSOL, PAPS, KCL, Method: PREINCUBATION): active; positive
- mutagenic call (Test System: AMES SALMONELLA TYPHIMURIUM, Strain/Indicator: TA98, Metabolic Activation: RAT, LIVER, CYTOSOL, PAPS, Method: PREINCUBATION): active; positive
- mutagenic call (Test System: AMES SALMONELLA TYPHIMURIUM, Strain/Indicator: TA98, Metabolic Activation: RAT, LIVER, PAPS, KCL, Method: PREINCUBATION): inactive; negative
- mutagenic call (Test System: AMES SALMONELLA TYPHIMURIUM, Strain/Indicator: TA98, Metabolic Activation: RAT, LIVER, S-9, NADPH, Method: PREINCUBATION): active; positive
